# Data reported in patent publication US20200377496A1, “INDOLE AND BENZIMIDAZOLE DERIVATIVES AS DUAL 5-HT2A and 5-HT6 RECEPTOR ANTAGONISTS” (ADAMED PHARMA, S.A., priority 2018, published 2020).
# Read-outs that look alike come from different tables or passages of the source.
# What was measured:
# 5-HT6 receptors = 5-HT6 receptors (Homo sapiens, UniProt P50406); assay: 5-HT6 receptor binding assay ([3H]-LSD radioligand); details: membranes from CHO-K1 cells with human 5-HT6 receptor, [3H]-LSD 1 nM
# Sequence of 5-HT6 receptors (P50406 whole entry): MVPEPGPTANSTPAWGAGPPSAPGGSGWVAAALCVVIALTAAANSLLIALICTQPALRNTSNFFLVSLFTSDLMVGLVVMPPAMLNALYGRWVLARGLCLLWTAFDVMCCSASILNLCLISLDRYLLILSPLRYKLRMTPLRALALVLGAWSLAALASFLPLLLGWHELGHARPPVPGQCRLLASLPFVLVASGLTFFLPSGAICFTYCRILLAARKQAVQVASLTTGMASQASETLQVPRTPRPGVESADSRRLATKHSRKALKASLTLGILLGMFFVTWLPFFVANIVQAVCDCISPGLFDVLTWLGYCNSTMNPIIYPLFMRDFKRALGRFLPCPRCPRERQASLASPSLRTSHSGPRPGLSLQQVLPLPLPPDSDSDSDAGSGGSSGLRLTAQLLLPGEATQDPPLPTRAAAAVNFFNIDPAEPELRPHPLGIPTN
# Experimental: (§1) Preparation of Solutions of Test and Reference Compounds.
# (§2) 1 mM stock solutions of tested compounds were prepared in DMSO. Serial dilutions of compounds were prepared in 96-well microplate in assay buffers using automated pipetting system epMotion 5070 (Eppendorf). Each compound was tested in 10 concentrations from 1.0E-6 to 1.0E-11 M (final concentration).
# 5-HT6 Receptor Binding Assay.
# Radioligand binding was performed using membranes from CHO-K1 cells stably transfected with the human 5-HT6 receptor (PerkinElmer). All assays were carried out in duplicates. 50 μl working solution of the tested compounds, 50 μl [3H]-LSD (final concentration 1 nM) and 150 μl diluted membranes (8 μg protein per well) prepared in assay buffer (50 mM Tris, pH 7.4, 10 mM MgCl2, 0.1 mM EDTA) were transferred to polypropylene 96 well microplate using 96-wells pipetting station Rainin Liquidator (MettlerToledo). Methiothepin (10 μM) was used to define nonspecific binding. Microplate was covered with a sealing tape, mixed and incubated for 60 minutes at 37° C. The reaction was terminated by rapid filtration through GF/A filter mate presoaked with 0.5% polyethyleneimine for 30 minutes. Ten rapid washes with 200 μl 50 mM Tris buffer (4° C., pH 7.4) were performed using automated harvester system Harvester-96 MACH III FM (Tomtec). The filter mates were dried at 37° C. in forced air fan incubator and then solid scintilator MeltiLex was melted on filter mates at 90° C. for 5 minutes. Radioactivity was counted in MicroBeta2 scintillation counter (PerkinElmer). Data were fitted to a one-site curve-fitting equation with Prism 6 (GraphPad Software) and Ki values were estimated from the Cheng-Prusoff equation.
# human 5-HT2A receptor = human 5-HT2A receptor (Homo sapiens, UniProt P28223); assay: 5-HT2A receptor binding assay ([3H]-ketanserin radioligand)
# Sequence of human 5-HT2A receptor (P28223 whole entry): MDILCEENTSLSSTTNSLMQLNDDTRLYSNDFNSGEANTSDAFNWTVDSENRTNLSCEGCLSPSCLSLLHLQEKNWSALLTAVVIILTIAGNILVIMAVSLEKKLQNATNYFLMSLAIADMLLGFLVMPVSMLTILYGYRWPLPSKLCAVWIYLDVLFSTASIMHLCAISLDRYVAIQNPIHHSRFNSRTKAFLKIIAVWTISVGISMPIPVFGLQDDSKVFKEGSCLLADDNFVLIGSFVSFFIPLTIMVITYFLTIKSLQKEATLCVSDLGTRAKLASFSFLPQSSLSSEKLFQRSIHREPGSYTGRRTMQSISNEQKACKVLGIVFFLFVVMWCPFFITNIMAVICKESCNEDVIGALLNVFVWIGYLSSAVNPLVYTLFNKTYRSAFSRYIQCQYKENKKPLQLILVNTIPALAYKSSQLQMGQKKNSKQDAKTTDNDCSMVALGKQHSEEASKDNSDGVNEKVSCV
# Experimental: as §1, §2
# 5-HT2A Receptor Binding Assay.
# Radioligand binding was performed using membranes from CHO K1 cells stably transfected with the human 5-HT2A receptor (PerkinElmer). All assays were carried out in duplicates. 50 μl working solution of the tested compounds, 50 μl [3H]-ketanserin (final concentration 1 nM) and 150 μl diluted membranes (7 μg protein per well) prepared in assay buffer (50 mM Tris, pH 7.4, 4 mM CaCl2, 0.1% ascorbic acid) were transferred to polypropylene 96-well microplate using 96-wells pipetting station Rainin Liquidator (MettlerToledo). Mianserin (10 μM) was used to define nonspecific binding. Microplate was covered with a sealing tape, mixed and incubated for 60 minutes at 27° C. The reaction was terminated by rapid filtration through GF/B filter mate presoaked with 0.5% polyethyleneimine for 30 minutes. Ten rapid washes with 200 μl 50 mM Tris buffer (4° C., pH 7.4) were performed using automated harvester system Harvester-96 MACH III FM (Tomtec). The filter mates were dried at 37° C. in forced air fan incubator and then solid scintilator MeltiLex was melted on filter mates at 90° C. for 5 minutes. Radioactivity was counted in MicroBeta2 scintillation counter (PerkinElmer). Data were fitted to a one-site curve-fitting equation with Prism 6 (GraphPad Software) and Ki values were estimated from the Cheng-Prusoff equation.
# human GPCR 5-HT6 = human GPCR 5-HT6 (Homo sapiens, UniProt P50406); assay: Cellular aequorin-based functional assay, 5-HT6; type: cell-based; details: for 5-HT6 AGO EC50 [nM]: agonist mode, CHO-K1 aequorin cells; for Kb: antagonist mode, reference agonist serotonin 40 nM (EC80), read-out: 5-HT6 ANT Kb
# Sequence of human GPCR 5-HT6 (P50406 whole entry): as the sequence (P50406 whole entry) above
# Experimental: as §1
# (§3) 1 mM stock solutions of the tested compounds were prepared in DMSO. Serial dilutions were prepared in 96-well microplate in assay buffers using automated pipetting system epMotion 5070 (Eppendorf). Two independent experiments in duplicates were performed and 6 to 10 concentrations were tested.
# (§4) 5-HT2A and 5-HT6 Functional Activity Assays.
# (§5) Cellular aequorin-based functional assays were performed with γ-irradiated recombinant CHO-K1 cells expressing mitochondrially-targeted Aequorin, human GPCR (5-HT2A or 5-HT6) and the promiscuous G protein α16 (PerkinElemer). Assays were performed according to the standard protocol provided by the manufacturer. After thawing, cells were transferred to assay buffer (DMEM/HAM's F12 with 0.1% protease-free BSA) and centrifuged. Cell pellet was resuspended in assay buffer and coelenterazine h was added at final concentrations of 5 μM. Cell suspension was incubated at 21° C., protected from light with constant agitation, for 4 hours and then diluted with assay buffer to a concentration of 250,000 cells/ml. After 1 hour incubation 50 yl cell suspension was dispensed using automatic injectors built in radiometric and luminescence plate counter MicroBeta2 LumiJET (PerkinElmer, USA) into white opaque 96-well microplate preloaded with tested compounds. Immediate light emission generated following calcium mobilization was recorded for 30-60 seconds. In antagonist mode, after 15-30 minutes incubation reference agonist was added to the above assay mix and light emission was recorded again. Final concentration of reference agonist was equal EC80: serotonin 40 nM for 5-HT6 receptor and α-methylserotonin 30 nM for 5-HT2A receptor. The assays were performed in the agonist mode (5-HT6 AGO and 5-HT2A AGO) as well as antagonist mode (5-HT6 ANT and 5-HT2A ANT).
# (§6) IC50 and EC50 were determined by non-linear regression analysis using GraphPad Prism 6.0 software. The log IC50 was used to obtain the Kb by applying the Cheng-Prusoff approximation.
# human GPCR 5-HT2A = human GPCR 5-HT2A (Homo sapiens, UniProt P28223); assay: Cellular aequorin-based functional assay, 5-HT2A; type: cell-based; details: for 5-HT2A AGO EC50 [nM]: agonist mode, CHO-K1 aequorin cells
# Sequence of human GPCR 5-HT2A (P28223 whole entry): as the sequence (P28223 whole entry) above
# Experimental: as §1, §3, §4, §5, §6
# [1] = membranes from CHO K1 cells with human 5-HT2A receptor, [3H]-ketanserin 1 nM, read-out: 5-HT2A Ki
# [2] = antagonist mode, reference agonist α-methylserotonin 30 nM (EC80), read-out: 5-HT2A ANT Kb
SMILES,Ki (5-HT6 receptors) [nM],Ki (human 5-HT2A receptor; [1]) [nM],5-HT6 AGO EC50 [nM] (human GPCR 5-HT6),Kb (human GPCR 5-HT6) [nM],5-HT2A AGO EC50 [nM] (human GPCR 5-HT2A),Kb (human GPCR 5-HT2A; [2]) [nM],Ki (human 5-HT2A receptor) [nM],Kb (human GPCR 5-HT2A) [nM]
"CN1CCN(c2cccc3c2nc(C(F)(F)F)n3Cc2ccccc2)CC1 [Compound 2, 1-benzyl-4-(4-methylpiperazin-1-yl)-2-(trifluoromethyl)-1H-benzimidazole]",2.2,3.1,–,–,–,–,–,–
"FC(F)(F)c1nc2c(N3CCNCC3)cccc2n1Cc1cccc(Cl)c1 [Compound 6, 1-(3-chlorobenzyl)-4-(piperazin-1-yl)-2-(trifluoromethyl)-1H-benzimidazole]",1.7,3.8,–,–,–,–,–,–
"Fc1cccc(Cn2c(C(F)(F)F)nc3c(N4CCNCC4)cccc32)c1 [Compound 7, 1-(3-fluorobenzyl)-4-(piperazin-1-yl)-2-(trifluoromethyl)-1H-benzimidazole]",1.6,2.9,N.C.,1.9,N.C.,22,–,–
"FC(F)(F)c1nc2c(N3CCNCC3)cccc2n1Cc1ccc(Cl)c(Cl)c1 [Compound 8, 1-(3,4-dichlorobenzyl)-4-(piperazin-1-yl)-2-(trifluoromethyl)-1H-benzo[d]imidazole]",2,2.9,–,–,–,–,–,–
"FC(F)(F)c1cc2c(N3CCNCC3)cccc2n1Cc1ccccc1 [Compound 12, 1-benzyl-4-(piperazin-1-yl)-2-(trifluoromethyl)-1H-indole]",0.29,–,N.C.,0.49,N.C.,–,2.1,31
"CN1CCN(c2cccc3c2cc(C(F)(F)F)n3Cc2ccc(Cl)c(Cl)c2)CC1 [Compound 13, 1-(3,4-dichlorobenzyl)-4-(4-methylpiperazin-1-yl)-2-(trifluoromethyl)-1H-indole]",0.98,2.6,N.C.,9.1,N.C.,–,–,–
"CN1CCN(c2cccc3c2cc(C(F)(F)F)n3Cc2ccc(Cl)c(F)c2)CC1 [Compound 14, 1-(4-chloro-3-fluorobenzyl)-4-(4-methylpiperazin-1-yl)-2-(trifluoromethyl)-1H-indole]",0.65,0.39,N.C.,5.5,N.C.,59,–,–
"Fc1cc(Cn2c(C(F)(F)F)cc3c(N4CCNCC4)cccc32)ccc1Cl [Compound 16, 1-(4-chloro-3-fluorobenzyl)-4-(piperazin-1-yl)-2-(trifluoromethyl)-1H-indole]",0.62,0.82,N.C.,4.4,N.C.,55,–,–
"COc1cccc(Cn2c(C(F)(F)F)cc3c(N4CCN(C)CC4)cccc32)c1 [Compound 18, 1-(3-methoxybenzyl)-4-(4-methylpiperazin-1-yl)-2-(trifluoromethyl)-1H-indole]",0.27,4.2,–,–,–,–,–,–
"Fc1cccc(Cn2c(C(F)(F)F)cc3c(N4CCNCC4)cccc32)c1 [Compound 19, 1-(3-fluorobenzyl)-4-(piperazin-1-yl)-2-(trifluoromethyl)-1H-indole]",0.35,–,N.C.,0.14,N.C.,–,1.3,21
"FC(F)(F)c1cc2c(N3CCNCC3)cccc2n1Cc1cccc(Cl)c1 [Compound 20, 1-(3-chloroobenzyl)-4-(piperazin-1-yl)-2-(trifluoromethyl)-1H-indole]",–,–,N.C.,1.2,N.C.,–,2.2,53
"CN1CCN(c2cccc3c2cc(C(F)(F)F)n3Cc2ccco2)CC1 [Compound 21, 1-(furan-2-ylmethyl)-4-(4-methylpiperazin-1-yl)-2-(trifluoromethyl)-1H-indole]",0.18,–,N.C.,0.27,N.C.,4.3,–,–
"CN1CCN(c2cccc3c2cc(C(F)(F)F)n3Cc2ccc(F)c(F)c2)CC1 [Compound 22, 1-(3,4-difluorobenzyl)-4-(4-methylpiperazin-1-yl)-2-(trifluoromethyl)-1H-indole]",–,0.45,N.C.,4.8,N.C.,26,–,–
"COc1cccc(Cn2c(C(F)(F)F)cc3c(N4CCNCC4)cccc32)c1 [Compound 23, 1-(3-methoxybenzyl)-4-(piperazin-1-yl)-2-(trifluoromethyl)-1H-indole]",–,–,N.C.,0.26,N.C.,28,–,–
"CN1CCN(c2cccc3c2cc(C(F)(F)F)n3Cc2cccc(F)c2)CC1 [Compound 24, 1-[(3-fluorophenyl)methyl]-4-(4-methylpiperazin-1-yl)-2-(trifluoromethyl)-1H-indole]",0.092,0.73,N.C.,1.1,N.C.,28,–,–
"Fc1ccc(Cn2c(C(F)(F)F)cc3c(N4CCNCC4)cccc32)cc1F [Compound 25, 1-(3,4-difluorobenzyl)-4-(piperazin-1-yl)-2-(trifluoromethyl)-1H-indole]",0.37,0.71,N.C.,0.65,N.C.,20,–,–
"CN1CCN(c2cccc3c2cc(C(F)(F)F)n3Cc2ccccc2)CC1 [Compound 26, 1-benzyl-4-(4-methylpiperazin-1-yl)-2-(trifluoromethyl)-1H-indole]",0.087,0.91,–,–,–,–,–,–
"CN1CCN(c2cccc3c2cc(C(F)(F)F)n3Cc2cccc(Cl)c2)CC1 [Compound 27, 1-(3-chlorobenzyl)-4-(4-methylpiperazin-1-yl)-2-(trifluoromethyl)-1H-indole]",–,–,N.C.,0.31,N.C.,56,–,–
"Cc1ccc(Cn2c(C(F)(F)F)cc3c(N4CCNCC4)cccc32)o1 [Compound 28, 1-[(5-methylfuran-2-yl)methyl]-4-(piperazin-1-yl)-2-(trifluoromethyl)-1H-indole]",4,–,N.C.,0.25,N.C.,–,0.48,16
